Results reported in patent US4416884A, “Piperazinylbenzoheterocyclic compounds” (Otsuka Pharmaceutical Co., Ltd., priority 1978, dated 1983).
≈ marks a conversion by molar mass, not a printed value. Structures can show the parent of a compound that is named as a salt. Where two headings read alike, the source gives them in different places.

Tests used:
Test in all cases: antimicrobial activity, serial dilution method on agar plate
Type in all cases: cell-based
[1] = tested on: Pseudomonas aeruginosa NCTC 10490
Description: (§1) The antimicrobial activity of the following test compounds on various test organisms listed below was determined by the serial dilution method on agar plate (Heart Infusion agar produced by Difco Co.) (see CHEMOTHERAPY 22, pp. 1126-1128 (1974)), and the minimum inhibitory concentrations (mcg/ml) obtained are shown in Table 1 below.
(§2) A sample of each test organism was prepared so that the population of the organism was 1×10^8 cells/ml (O.D. 660 mμ=0.07 to 0.16) and 1×10^6 cells/ml (which was obtained by diluting the above 1×10^8 cells/ml preparation).

[2] = tested on: Klebsiella pneumoniae
Description: as §1, §2

[3] = tested on: Escherichia Coli NIHJ JC-2 (IFO 12734); settings: for MIC: Escherichia coli, read-out: Minimum Inhibitory Concentration
Description: as §1, §2

[4] = tested on: Staphylococcus aureus FDA 209 P
Description: as §1, §2

[5] = tested on: Pseudomonas aeruginosa E-2
Description: as §1, §2

[6] = tested on: Salmonella typhi 0-901 (NCTC 8393); settings: Salmonella enterica
Description: as §1, §2

[7] = tested on: Shigella Sonnei EW 33; settings: read-out: Minimum Inhibitory Concentration
Description: as §1, §2

[8] = tested on: Streptococcus pyogenes IID S-23
Description: as §1, §2

[9] = tested on: Pseudomonas aeruginosa ATCC 10145
Description: as §1, §2

[10] = tested on: Serattia marcescens IFO 12648
Description: as §1, §2

[11] = tested on: Proteus rettgeri NIH 96; settings: Providencia rettgeri
Description: as §1, §2

[12] = NCTC10490, inoculum 1 × 10^6 cells/ml, read-out: Minimum Inhibitory Concentration
[13] = NCTC10490, inoculum 1 × 10^8 cells/ml, read-out: Minimum Inhibitory Concentration
[14] = inoculum 1 × 10^6 cells/ml, read-out: Minimum Inhibitory Concentration
[15] = inoculum 1 × 10^8 cells/ml, read-out: Minimum Inhibitory Concentration
[16] = FDA209, inoculum 1 × 10^6 cells/ml, read-out: Minimum Inhibitory Concentration
[17] = FDA209, inoculum 1 × 10^8 cells/ml, read-out: Minimum Inhibitory Concentration
[18] = E2, inoculum 1 × 10^6 cells/ml, read-out: Minimum Inhibitory Concentration
[19] = E2, inoculum 1 × 10^8 cells/ml, read-out: Minimum Inhibitory Concentration
[20] = read-out: Minimum Inhibitory Concentration, inoculum 1 × 10^6 cells/ml
[21] = read-out: Minimum Inhibitory Concentration, inoculum 1 × 10^8 cells/ml
[22] = IIDS23, inoculum 1 × 10^6 cells/ml, read-out: Minimum Inhibitory Concentration
[23] = IIDS23, inoculum 1 × 10^8 cells/ml, read-out: Minimum Inhibitory Concentration
[24] = ATCC10145, inoculum 1 × 10^6 cells/ml, read-out: Minimum Inhibitory Concentration
[25] = ATCC10145, inoculum 1 × 10^8 cells/ml, read-out: Minimum Inhibitory Concentration
[26] = NIH96, inoculum 1 × 10^6 cells/ml, read-out: Minimum Inhibitory Concentration
[27] = NIH96, inoculum 1 × 10^8 cells/ml, read-out: Minimum Inhibitory Concentration
[28] = NCTC10490, read-out: Minimum Inhibitory Concentration, inoculum 1 × 10^8 cells/ml
[29] = FDA209, read-out: Minimum Inhibitory Concentration, inoculum 1 × 10^8 cells/ml
[30] = E2, read-out: Minimum Inhibitory Concentration, inoculum 1 × 10^8 cells/ml
[31] = IIDS23, read-out: Minimum Inhibitory Concentration, inoculum 1 × 10^8 cells/ml
[32] = ATCC10145, read-out: Minimum Inhibitory Concentration, inoculum 1 × 10^8 cells/ml
[33] = NIH96, read-out: Minimum Inhibitory Concentration, inoculum 1 × 10^8 cells/ml

Compound | MIC [1, 12] | MIC [1, 13] | MIC [2, 14] | MIC [2, 15] | MIC ([3]; inoculum 1 × 10^6 cells/ml) | MIC ([3]; inoculum 1 × 10^8 cells/ml) | MIC [4, 16] | MIC [4, 17] | MIC [5, 18] | MIC [5, 19] | MIC [6, 20] | MIC [6, 21] | MIC ([7]; inoculum 1 × 10^6 cells/ml) | MIC ([7]; inoculum 1 × 10^8 cells/ml) | MIC [8, 22] | MIC [8, 23] | MIC [9, 24] | MIC [9, 25] | MIC [10, 15] | MIC [11, 27] | further results
CC1CCc2c(N3CCN(C=O)CC3)c(Cl)cc3c(=O)c(C(=O)O)cn1c23 (stereo not drawn) [Compound V, 8-(4-Formyl-1-piperazinyl)-9-chloro-5-methyl-6,7-dihydro-1-oxo-1H,5H--benzo[ij]-quinolizine-2-carboxylic acid] | 1.6 µg/mL (≈ 4.1 µM) | 3.1 µg/mL (≈ 7.95 µM) | 0.8 µg/mL (≈ 2.05 µM) | 0.8 µg/mL (≈ 2.05 µM) | 0.8 µg/mL (≈ 2.05 µM) | 0.8 µg/mL (≈ 2.05 µM) | 0.2 µg/mL (≈ 0.513 µM) | 0.2 µg/mL (≈ 0.513 µM) | 6.3 µg/mL (≈ 16.2 µM) | 12.5 µg/mL (≈ 32.1 µM) | 0.2 µg/mL (≈ 0.513 µM) | 0.2 µg/mL (≈ 0.513 µM) | 0.4 µg/mL (≈ 1.03 µM) | 0.8 µg/mL (≈ 2.05 µM) | 1.6 µg/mL (≈ 4.1 µM) | 3.1 µg/mL (≈ 7.95 µM) | 12.5 µg/mL (≈ 32.1 µM) | 12.5 µg/mL (≈ 32.1 µM) | 3.1 µg/mL (≈ 7.95 µM) | 0.8 µg/mL (≈ 2.05 µM) | MIC [10, 14]: 3.1 µg/mL (≈ 7.95 µM); MIC [11, 26]: 0.8 µg/mL (≈ 2.05 µM)
CC1CCc2c(N3CCN(C(=O)C(F)(F)C(F)(F)C(F)(F)F)CC3)c(Cl)cc3c(=O)c(C(=O)O)cn1c23 (stereo not drawn) [e] | – | – | – | – | – | – | – | – | – | – | – | – | – | 0.78 µg/mL (≈ 1.4 µM) | – | – | – | – | – | – | MIC [1, 28]: 3.13 µg/mL (≈ 5.61 µM); MIC [2, 21]: 0.39 µg/mL (≈ 0.699 µM); MIC [3]: 0.39 µg/mL (≈ 0.699 µM); MIC [4, 29]: 3.13 µg/mL (≈ 5.61 µM); MIC [5, 30]: 6.25 µg/mL (≈ 11.2 µM); MIC [6, 15]: 0.2 µg/mL (≈ 0.359 µM); MIC [8, 31]: 6.25 µg/mL (≈ 11.2 µM); MIC [9, 32]: 1.56 µg/mL (≈ 2.8 µM); MIC [10, 21]: 0.2 µg/mL (≈ 0.359 µM); MIC [11, 33]: 0.2 µg/mL (≈ 0.359 µM)
CC1CCc2c(N3CCNCC3)c(Cl)cc3c(=O)c(C(=O)O)cn1c23 (stereo not drawn) [Compound T, 8-(1-Piperazinyl)-9-chloro-5-methyl-6,7-dihydro-1-oxo-1H,5H--benzo[ij]quinolizine-2-carboxylic acid hydrochloride hydrate] | – | – | – | – | – | – | – | – | – | – | – | – | 0.2 µg/mL | 0.2 µg/mL | – | – | – | – | – | – | MIC ([1]; NCTC10490, read-out: Minimum Inhibitory Concentration, inoculum 1 × 10^6 cells/ml): 1.6 µg/mL; MIC [1, 28]: 1.6 µg/mL; MIC [2, 20]: 0.4 µg/mL; MIC [2, 21]: 0.4 µg/mL; MIC [3]: 0.4 µg/mL; Minimum Inhibitory Concentration ([3]; inoculum 1 × 10^6 cells/ml): 0.4 µg/mL; MIC ([4]; FDA209, read-out: Minimum Inhibitory Concentration, inoculum 1 × 10^6 cells/ml): 1.6 µg/mL; MIC [4, 29]: 1.6 µg/mL; MIC ([5]; E2, read-out: Minimum Inhibitory Concentration, inoculum 1 × 10^6 cells/ml): 3.1 µg/mL; MIC [5, 30]: 3.1 µg/mL; MIC [6, 14]: 0.1 µg/mL; MIC [6, 15]: 0.2 µg/mL; MIC ([8]; IIDS23, read-out: Minimum Inhibitory Concentration, inoculum 1 × 10^6 cells/ml): 3.1 µg/mL; MIC [8, 31]: 6.3 µg/mL; MIC ([9]; ATCC10145, read-out: Minimum Inhibitory Concentration, inoculum 1 × 10^6 cells/ml): 1.6 µg/mL; MIC [9, 32]: 3.1 µg/mL; MIC [10, 20]: 1.6 µg/mL; MIC [10, 21]: 1.6 µg/mL; MIC ([11]; NIH96, read-out: Minimum Inhibitory Concentration, inoculum 1 × 10^6 cells/ml): 0.2 µg/mL; MIC [11, 33]: 0.2 µg/mL
COc1ccc(CN2CCN(c3c(Cl)cc4c(=O)c(C(=O)O)cn5c4c3CCC5C)CC2)cc1 (stereo not drawn) [g] | – | 12.5 µg/mL (≈ 25.9 µM) | – | 0.78 µg/mL (≈ 1.62 µM) | – | 0.78 µg/mL (≈ 1.62 µM) | – | 0.78 µg/mL (≈ 1.62 µM) | – | 12.5 µg/mL (≈ 25.9 µM) | – | 0.78 µg/mL (≈ 1.62 µM) | – | 1.56 µg/mL (≈ 3.24 µM) | – | 3.13 µg/mL (≈ 6.49 µM) | – | 6.25 µg/mL (≈ 13 µM) | 0.39 µg/mL (≈ 0.809 µM) | 0.1 µg/mL (≈ 0.207 µM) | –
CC1CCc2c(N3CCN(C)CC3)c(Cl)cc3c(=O)c(C(=O)O)cn1c23 (stereo not drawn) [Compound U, 8-(4-Methyl-1-piperazinyl)-9-chloro-5-methyl-6,7-dihydro-1-oxo-1H,5H--benzo[ij]-quinolizine-2-carboxylic acid] | 1.6 µg/mL (≈ 4.26 µM) | 1.6 µg/mL (≈ 4.26 µM) | 0.2 µg/mL (≈ 0.532 µM) | 0.2 µg/mL (≈ 0.532 µM) | 0.2 µg/mL (≈ 0.532 µM) | 0.2 µg/mL (≈ 0.532 µM) | 0.4 µg/mL (≈ 1.06 µM) | 0.8 µg/mL (≈ 2.13 µM) | 6.3 µg/mL (≈ 16.8 µM) | 6.3 µg/mL (≈ 16.8 µM) | ≤ 0.05 µg/mL | ≤ 0.05 µg/mL | 0.1 µg/mL (≈ 0.266 µM) | 0.2 µg/mL (≈ 0.532 µM) | 3.1 µg/mL (≈ 8.25 µM) | 3.1 µg/mL (≈ 8.25 µM) | 3.1 µg/mL (≈ 8.25 µM) | 3.1 µg/mL (≈ 8.25 µM) | 0.4 µg/mL (≈ 1.06 µM) | 0.4 µg/mL (≈ 1.06 µM) | MIC [10, 14]: 0.4 µg/mL (≈ 1.06 µM); MIC [11, 26]: 0.4 µg/mL (≈ 1.06 µM)
C=CCN1CCN(c2c(Cl)cc3c(=O)c(C(=O)O)cn4c3c2CCC4C)CC1 (stereo not drawn) [h] | – | 12.5 µg/mL (≈ 31.1 µM) | – | 0.78 µg/mL (≈ 1.94 µM) | – | 0.78 µg/mL (≈ 1.94 µM) | – | 0.78 µg/mL (≈ 1.94 µM) | – | 12.5 µg/mL (≈ 31.1 µM) | – | 0.78 µg/mL (≈ 1.94 µM) | – | 1.56 µg/mL (≈ 3.88 µM) | – | 3.13 µg/mL (≈ 7.79 µM) | – | 12.5 µg/mL (≈ 31.1 µM) | 0.78 µg/mL (≈ 1.94 µM) | 0.2 µg/mL (≈ 0.498 µM) | –
